{"source": "patent US20120252765A1", "about": "“USE OF […] THE PREPARATION OF A MEDICAMENT FOR THE PREVENTION OF HOSPI[…] HEART FAILURE” (SANOFI, priority 2009, published 2012)", "test_system": "patients with atrial fibrillation", "test": "partial factorial, double-blind, randomized, multi-center, placebo-controlled trial of irbesartan for prevention of vascular events", "type": "in vivo, human", "source_text": "Efficacy of irbesartan and its pharmaceutically acceptable salts versus placebo in patients with atrial fibrillation for the prevention of vascular events was provided via irbesartan during a partial factorial, double-blind, randomized, multi-center, placebo-controlled group trial.\nTo be eligible for the trial, patients had to have all of the following: an evidence of atrial fibrillation, an evidence of high risk of vascular events, and a systolic blood pressure of at least 110 mm Hg.\nThe evidence of atrial fibrillation is defined as follows: patient must have either permanent, paroxysmal or persistent atrial fibrillation. Patients in atrial fibrillation at baseline (unless cardiovascular surgery was performed in the previous month) had ECG documented atrial fibrillation at the time of enrollment. Patients not in atrial fibrillation at baseline (i.e. during screening period, between the screening visit and the day of randomization) had ECG documented atrial fibrillation on two separate occasions, at least 2 weeks apart in the six months prior to randomization (and not within one month of cardiovascular surgery).\nThe evidence of high risk of vascular events is defined as follows: at least one of the following risk criteria must be present:\nPatients have been enrolled for over 4 years. Study drug treatment units (placebo or irbesartan) were such that each patient took two tablets of either placebo or 150 mg irbesartan form A, once daily, at night. After an up-titration period of 2 weeks, all patients were up-titrated to 300 mg. They took two tablets of either placebo or 150 mg irbesartan form A, once daily, at night.\nResults were calculated using non-parametric Kaplan-Meier estimate.\nCox's proportional hazard model was used to estimate the hazard ratio also called relative risk.\nRelative risk (RR) is the ratio between the risk of having a hospitalization for heart failure for patients treated with irbesartan and the risk of having a hospitalization for heart failure for patients treated with placebo.\nThe percentage of decrease of an event is calculated as follow: […]", "data": [{"smiles": "CCCCC1=NC2(CCCC2)C(=O)N1Cc1ccc(-c2ccccc2-c2nnn[nH]2)cc1", "note": "[irbesartan, 2-n-butyl-4-spirocyclopentane-1-[(2′-(tetrazol-5-yl)biphenyl-4-yl)methyl]-2-imidazolin-5-one]", "values": [{"measurement": "risk of heart failure hospitalization", "setting": "4518 patients on irbesartan form A up-titrated to 300 mg once daily, Kaplan-Meier estimate, placebo 3.2% per year", "result": 2.7, "unit": "% per year"}, {"measurement": "number of stays in hospital", "setting": "irbesartan group, placebo 4059, p=0.004", "result": 3817}, {"measurement": "days hospitalized for cardiovascular reasons", "setting": "irbesartan group, placebo 39941, p=0.0001", "result": 36480, "unit": "days"}, {"measurement": "decrease of days hospitalized for cardiovascular reasons", "setting": "irbesartan versus placebo", "result": 8.7, "unit": "%"}, {"measurement": "relative risk (hazard ratio) of hospitalization for heart failure", "setting": "irbesartan versus placebo, Cox's proportional hazard model, confidence interval 0.76-0.98, p=0.018", "result": 0.86}, {"measurement": "reduction in the risk of heart failure hospitalization (1-RR)", "setting": "irbesartan versus placebo, p=0.018", "result": 14, "unit": "%"}, {"measurement": "hospitalization for heart failure events", "setting": "number of events in the irbesartan group (4518 patients), placebo 551", "result": 482}, {"measurement": "reduction in the risk of the composite of stroke, non-CVS embolism and transient ischemic attacks", "setting": "post hoc analysis, irbesartan versus placebo, p=0.02", "result": 13, "unit": "%"}, {"measurement": "risk of the composite of stroke, non-CVS embolism and transient ischemic attacks", "setting": "post hoc analysis, placebo 3.4% per year", "result": 2.9, "unit": "% per year"}]}]}
